This is an account of results in the supplement of paper PMC11061612.

Experiment [1] relates to DSH1 (Bladder Carcinoma). The experiment is described as follows: combination Emax (second highest fraction inhibited in the dose matrix, 72 h); higher = more inhibition; extreme values may be limits of the assay. The essentials:
(§1)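 Cell lines grown in DMEM/F12 or RPMI with 10% FBS were plated in 1536-well plates and held 24 hours at 37°C, 5% CO2 before 72 hours of exposure to two-drug dose matrices, with DMSO typically at 0.2%. CellTiter-Glo 2.0 luminescence gave viability, which was converted to inhibition. Vehicle wells were set to 0 and blank wells to 1. Combination Emax is the second-highest inhibition in the matrix, and Bliss excess is the observed combination effect minus the expected EA + EB − EA·EB, where EA and EB are the single-agent effects.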

Experiment [2] deals with HT-29 (Colorectal Carcinoma). The experiment is described as above. An outline of the steps: as §1
Experiment [3] relates to COR-L95 (Small Cell Lung Carcinoma). Described as above. The essentials:
as §1

Experiment [4] has as its system C3A (Hepatocellular Carcinoma). The experiment is described as above. The essentials: as §1
Experiment [5] relates to NALM-6 (B-Lymphoblastic Leukemia). The experiment is described as above. The essentials: as §1
Experiment [6] has as its system KM-H2 (Hodgkin's Lymphoma). The experiment is described as above. The essentials:
as §1

Experiment [7] has as its system MDA-MB-231 (Breast Carcinoma). Described as above. An outline of the steps: as §1
The test system of experiment [8] is DB (B-Cell Non-Hodgkin's Lymphoma). Described as above. An outline of the steps: as §1
Experiment [9] deals with DMS-273 (Small Cell Lung Carcinoma). Described as above. An outline of the steps:
as §1

Experiment [10] concerns SW756 (Cervical Carcinoma). The experiment is described as above. The essentials:
as §1

Experiment [11] concerns NCI-H1781 (Lung Adenocarcinoma). The description is as above. An outline of the steps:
as §1

Experiment [12] deals with JiyoyeP-2003 (Burkitt's Lymphoma). The experiment is described as follows: Bliss excess, mean over the matrix (fraction); higher = more synergy. An outline of the steps: as §1
Experiment [13] deals with DSH1 (Bladder Carcinoma). The experiment is described as above. An outline of the steps:
as §1

Experiment [14] deals with COR-L95 (Small Cell Lung Carcinoma). Described as above. An outline of the steps:
as §1

For experiment [15], the system named is KARPAS-620 (Plasma Cell Myeloma). The description is as above. An outline of the steps:
as §1

In the next experiment the test system is RH-1 (Ewing's Sarcoma). The experiment is described as above. The essentials: as §1
For experiment [16], the system named is 697 (B-Lymphoblastic Leukemia). The description is as above. An outline of the steps: as §1
Experiment [17] relates to LS-513 (Colorectal Carcinoma). The description is as above. An outline of the steps:
as §1

In experiment [18] the test system is HPAC (Pancreatic Carcinoma). The description is as above. The essentials:
as §1

Experiment [19] concerns CFPAC-1 (Pancreatic Carcinoma). The description is as above. An outline of the steps: as §1

Each structure is given as a SMILES string.
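Wherever Bliss excess, mean over the matrix is given: after 72 h of two-drug dosing.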

For the compound `COc1cc2c(cc1OCCCCCOc1cc3c(cc1OC)C(=O)N1C=C(C)C[C@H]1C=N3)N=C[C@@H]1CC(C)=CN1C2=O` [SG3199] + O=C(c1cc(Cc2n[nH]c(=O)c3ccccc23)ccc1F)N1CCN(C(=O)C2CC2)CC1 [Olaparib] (first compound max 0.001 µM, 7x7, partner max 10 µM), the “combination Emax” value in the experiment on DSH1 (Bladder Carcinoma) [1] was found to be 0.25; in experiment [2], 0.0781; in experiment [3] it was 0.431; in experiment [4], 0.215; in experiment [5] it was 0.459; in experiment [6], 0.264. For the same compound, the “combination Emax” value was 0.178 in [7]; 0.347 in experiment [8]; 0.308 in [9]; 0.149 in [10]; 0.45 in [11]. Further, the Bliss excess was -0.0016 in experiment [12]; -0.0442 in the experiment with DSH1 (Bladder Carcinoma) [13]; -0.0224 in experiment [14]; -0.0015 in [15]; -0.0035 in the experiment with RH-1 (Ewing's Sarcoma); 0.0376 in experiment [16]. Moreover, the Bliss excess in [17] is -0.0372; in [18], -0.0232; in [19], -0.0329.
As for `CC1(C)CCC(CN2CCN(c3ccc(C(=O)NS(=O)(=O)c4ccc(NCC5CCOCC5)c([N+](=O)[O-])c4)c(Oc4cnc5[nH]ccc5c4)c3)CC2)=C(c2ccc(Cl)cc2)C1` [Venetoclax] + CN(C)CCCOc1ccc(-c2ccc3ncc4c(c3c2)n(C2CCOCC2)c(=O)n4C)cn1 [AZD0156] (first compound max 1 µM, 7x7, partner max 1 µM), the “combination Emax” value turned out to be 0.156 in the experiment with DSH1 (Bladder Carcinoma) [1]; 0.233 in experiment [2]; 0.535 in [3]; 0.17 in experiment [4]; 0.89 in [5]; 0.206 in experiment [6]. For the same compound, the “combination Emax” value in [7] worked out at 0.267; in experiment [8], 0.971; in [9] it was 0.355; in experiment [10], 0.158; in experiment [11], 0.277. Besides, the Bliss excess is -0.0128 in experiment [12]; -0.0305 with DSH1 (Bladder Carcinoma) [13]; 0.0051 in [14]; 0.04 in experiment [15]; -0.0098 in the experiment on RH-1 (Ewing's Sarcoma); -0.0012 in [16]. The Bliss excess in [17] is -0.0273; in [18], -0.0146; in experiment [19], 0.0025.
In the case of `CN(CCO)CC[C@H](CSc1ccccc1)Nc1ccc(S(=O)(=O)NC(=O)c2ccc(N3CCC([C@@H](O)c4ccccc4-c4ccc(Cl)cc4)CC3)cc2)cc1S(=O)(=O)C(F)(F)F` [AZD4320] + C=CCn1c(=O)c2cnc(Nc3ccc(N4CCN(C)CC4)cc3)nc2n1-c1cccc(C(C)(C)O)n1 [AZD1775] (first compound max 1 µM, partner max 1 µM), the “combination Emax” value was 0.799 with DSH1 (Bladder Carcinoma) [1]; 0.965 in [2]; 1 in experiment [3]; 0.631 in experiment [4]; 1 in experiment [5]; 0.979 in experiment [6]. Further, the “combination Emax” value came to 0.716 in [7]; 1 in experiment [8]; 0.708 in experiment [9]; 0.399 in experiment [10]; 0.563 in experiment [11]. Moreover, the Bliss excess is 0.0154 in experiment [12]; 0.0646 with DSH1 (Bladder Carcinoma) [13]; 0.0519 in [14]; -0.0125 in experiment [15]; 0.0413 with RH-1 (Ewing's Sarcoma); 0.0545 in [16]. Besides, the values for the Bliss excess in experiment [17], in experiment [18] and in experiment [19] were -0.0134, -0.0048 and -0.0373, respectively.
Take `CC1(C)CCC(CN2CCN(c3ccc(C(=O)NS(=O)(=O)c4ccc(NCC5CCOCC5)c([N+](=O)[O-])c4)c(Oc4cnc5[nH]ccc5c4)c3)CC2)=C(c2ccc(Cl)cc2)C1` [Venetoclax] + C[C@@H](Nc1cc(F)cc(F)c1)c1cc(C(=O)N(C)C)cc2c(=O)cc(N3CCOCC3)oc12 [AZD8186] (first compound max 1 µM, 7x7, partner max 3 µM): the “combination Emax” value in the experiment on DSH1 (Bladder Carcinoma) [1] worked out at 0.282; in [2] it was 0.132; in experiment [3], 0.782; in [4], 0.296; in experiment [5], 0.866; in [6], 0.139. The “combination Emax” value in experiment [7] amounted to 0.137; in experiment [8] it was 0.943; in experiment [9] it was 0.482; in experiment [10] it was 0.117; in experiment [11], 0.28. The Bliss excess in [12] was 0.0246; in the experiment on DSH1 (Bladder Carcinoma) [13], 0.002; in experiment [14] it was 0.095; in [15], -0.0022; in the experiment with RH-1 (Ewing's Sarcoma), -0.0429; in experiment [16], -0.0458. For the same compound, the results for the Bliss excess in experiment [17], in [18] and in experiment [19] were -0.0551, -0.0029 and 0.0034, respectively.
For the compound `COc1cc2ncnc(Nc3ccc(F)c(Cl)c3)c2cc1OCCCN1CCOCC1` [Gefitinib] + CC(C)n1c(=O)n(C)c2cnc3cc(F)c(-c4ccc(OCCCN5CCCCC5)nc4)cc3c21 [AZD1390] (first compound max 10 µM, 7x7, partner max 0.3 µM), the “combination Emax” value with DSH1 (Bladder Carcinoma) [1] worked out at 0.858; in experiment [2], 0.315; in experiment [3], 0.261; in [4], 0.377; in experiment [5] it was 0.176; in [6], 0.19. Besides, the “combination Emax” value in experiment [7] was 0.193; in experiment [8], 0.328; in experiment [9] it was 0.325; in experiment [10] it was 0.1; in experiment [11], 0.538. For the same compound, the Bliss excess in [12] is -0.0386; with DSH1 (Bladder Carcinoma) [13] it was -0.0351; in experiment [14], -0.0119; in experiment [15] it was -0.0538; in the experiment with RH-1 (Ewing's Sarcoma), -0.0399; in [16], -0.0787. The Bliss excess in experiment [17] is -0.0362; in experiment [18] it was -0.0607; in experiment [19] it was -0.0676.
On to `CCN(CCO)CCCOc1ccc2c(Nc3cc(CC(=O)Nc4cccc(F)c4)[nH]n3)ncnc2c1` [AZD2811] + C[C@@H]1COCCN1C2=NC(=NC(=C2)C3(CC3)[S@](=N)(=O)C)C4=C5C=CNC5=NC=C4 [AZD6738] (first compound max 1 µM, 7x7, partner max 10 µM), for which the “combination Emax” value in the experiment on DSH1 (Bladder Carcinoma) [1] amounted to 0.673; in [2] it was 0.829; in experiment [3], 0.533; in experiment [4] it was 0.464; in experiment [5], 0.957; in [6], 0.766. The “combination Emax” value in [7] was 0.667; in experiment [8], 0.726; in experiment [9], 0.771; in [10] it was 0.171; in [11] it was 0.775. The Bliss excess in [12] is 0.0773; in the experiment with DSH1 (Bladder Carcinoma) [13], 0.02; in experiment [14], -0.0658; in experiment [15], -0.0121; in the experiment on RH-1 (Ewing's Sarcoma), -0.0414; in experiment [16], 0.0013. Moreover, the Bliss excess was -0.0524 in experiment [17], -0.0244 in experiment [18] and -0.0932 in experiment [19].
